Test results published in patent publication US11718604B2, “4-amino-6-(1,3-benzodioxole)picolinates and their use as herbicides” (Dow AgroSciences LLC, priority 2018, dated 2023).

Key:
Format in all cases: in vivo
[1] = system: IPOHE: ivyleaf morningglory (Ipomoea hederacea); assay: Post-emergent herbicidal test, ivyleaf morningglory; conditions: post-emergence, 336 h, 14 days after application, read-out: Visual Growth Reduction (%) 14 Days After Application IPOHE; for pest or weed control at 17.5 g/ha: 17.5 g ai/ha; for pest or weed control at 35 g/ha: 35 g ai/ha; for pest or weed control at 70 g/ha: 70 g ai/ha; for pest or weed control at 140 g/ha: 140 g ai/ha
Method in brief: (§1)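 Visual injury ratings (0 = no injury, 100% = complete kill) were made 14 d after post-emergence application versus untreated plants. Treatment: track-sprayer application at 187 L/ha to plants at first/second true leaf, in aqueous acetone/DMSO with crop oil concentrate and Triton X-155, as a high rate serially halved to 1/16×.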

[2] = system: CIRAR: Canada thistle (Cirsium arvense); assay: Post-emergent herbicidal test, Canada thistle; conditions: post-emergence, 336 h, 14 days after application, read-out: Visual Growth Reduction (%) 14 Days After Application CIRAR; for pest or weed control at 17.5 g/ha: 17.5 g ai/ha; for pest or weed control at 35 g/ha: 35 g ai/ha; for pest or weed control at 70 g/ha: 70 g ai/ha; for pest or weed control at 140 g/ha: 140 g ai/ha
Method in brief: as §1

[3] = system: DIGSA: large crabgrass (Digitaria sanguinalis); assay: Post-emergent herbicidal test, large crabgrass; conditions: post-emergence, 336 h, 14 days after application, read-out: Visual Growth Reduction (%) 14 Days After Application DIGSA; for pest or weed control at 17.5 g/ha: 17.5 g ai/ha; for pest or weed control at 35 g/ha: 35 g ai/ha; for pest or weed control at 70 g/ha: 70 g ai/ha; for pest or weed control at 140 g/ha: 140 g ai/ha
Method in brief: as §1

[4] = system: ECHCG: barnyardgrass (Echinochloa crus-galli); assay: Post-emergent herbicidal test, barnyardgrass; conditions: post-emergence, 336 h, 14 days after application, read-out: Visual Growth Reduction (%) 14 Days After Application ECHCG; for pest or weed control at 17.5 g/ha: 17.5 g ai/ha; for pest or weed control at 35 g/ha: 35 g ai/ha; for pest or weed control at 70 g/ha: 70 g ai/ha; for pest or weed control at 140 g/ha: 140 g ai/ha
Method in brief: as §1

[5] = system: CYPES: yellow nutsedge (Cyperus esculentus); assay: Post-emergent herbicidal test, yellow nutsedge; conditions: post-emergence, 336 h, 14 days after application, read-out: Visual Growth Reduction (%) 14 Days After Application CYPES; for pest or weed control at 17.5 g/ha: 17.5 g ai/ha; for pest or weed control at 35 g/ha: 35 g ai/ha; for pest or weed control at 70 g/ha: 70 g ai/ha; for pest or weed control at 140 g/ha: 140 g ai/ha
Method in brief: as §1

[6] = system: SORVU: shattercane (Sorghum bicolor); assay: Post-emergent herbicidal test, shattercane; conditions: post-emergence, 336 h, 14 days after application, read-out: Visual Growth Reduction (%) 14 Days After Application SORVU; for pest or weed control at 17.5 g/ha: 17.5 g ai/ha; for pest or weed control at 35 g/ha: 35 g ai/ha; for pest or weed control at 70 g/ha: 70 g ai/ha; for pest or weed control at 140 g/ha: 140 g ai/ha
Method in brief: as §1

[7] = system: VIOTR: wild violet (Viola tricolor); assay: Post-emergent herbicidal test, wild violet; conditions: post-emergence, 336 h, 14 days after application, read-out: Visual Growth Reduction (%) 14 Days After Application VIOTR; for pest or weed control at 17.5 g/ha: 17.5 g ai/ha; for pest or weed control at 35 g/ha: 35 g ai/ha; for pest or weed control at 70 g/ha: 70 g ai/ha; for pest or weed control at 140 g/ha: 140 g ai/ha
Method in brief: as §1

[8] = system: BRSNN: oilseed rape, canola (Brassica napus); assay: Post-emergent herbicidal test, oilseed rape; conditions: post-emergence, 336 h, 14 days after application, read-out: Visual Growth Reduction (%) 14 Days After Application BRSNN; for pest or weed control at 17.5 g/ha: 17.5 g ai/ha; for pest or weed control at 35 g/ha: 35 g ai/ha; for pest or weed control at 70 g/ha: 70 g ai/ha; for pest or weed control at 140 g/ha: 140 g ai/ha
Method in brief: as §1

[9] = system: SETFA: giant foxtail (Setaria faberi); assay: Post-emergent herbicidal test, giant foxtail; conditions: post-emergence, 336 h, 14 days after application, read-out: Visual Growth Reduction (%) 14 Days After Application SETFA; for pest or weed control at 17.5 g/ha: 17.5 g ai/ha; for pest or weed control at 35 g/ha: 35 g ai/ha; for pest or weed control at 70 g/ha: 70 g ai/ha; for pest or weed control at 140 g/ha: 140 g ai/ha
Method in brief: as §1

[10] = system: EPHHL: wild poinsettia (Euphorbia heterophylla); assay: Post-emergent herbicidal test, wild poinsettia; conditions: post-emergence, 336 h, 14 days after application, read-out: Visual Growth Reduction (%) 14 Days After Application EPHHL; for pest or weed control at 17.5 g/ha: 17.5 g ai/ha; for pest or weed control at 35 g/ha: 35 g ai/ha; for pest or weed control at 70 g/ha: 70 g ai/ha; for pest or weed control at 140 g/ha: 140 g ai/ha
Method in brief: as §1

[11] = system: ABUTH: velvetleaf (Abutilon theophrasti); assay: Post-emergent herbicidal test, velvetleaf; conditions: post-emergence, 336 h, 14 days after application, read-out: Visual Growth Reduction (%) 14 Days After Application ABUTH; for pest or weed control at 17.5 g/ha: 17.5 g ai/ha; for pest or weed control at 35 g/ha: 35 g ai/ha; for pest or weed control at 70 g/ha: 70 g ai/ha; for pest or weed control at 140 g/ha: 140 g ai/ha
Method in brief: as §1

COC(=O)c1nc(-c2ccc(Cl)c3c2OC(F)(F)O3)c(F)c(N)c1Cl [Compound 6]
pest or weed control at 17.5 g/ha [1]: 0%
pest or weed control at 35 g/ha [1]: 3%
pest or weed control at 70 g/ha [1]: 3%
pest or weed control at 140 g/ha [1]: 10%
pest or weed control at 17.5 g/ha [2]: 70%
pest or weed control at 35 g/ha [2]: 77%
pest or weed control at 70 g/ha [2]: 85%
pest or weed control at 140 g/ha [2]: 88%
pest or weed control at 17.5 g/ha [3]: 0%
pest or weed control at 35 g/ha [3]: 0%
pest or weed control at 70 g/ha [3]: 0%
pest or weed control at 140 g/ha [3]: 0%
pest or weed control at 17.5 g/ha [4]: 0%
pest or weed control at 35 g/ha [4]: 0%
pest or weed control at 70 g/ha [4]: 3%
pest or weed control at 140 g/ha [4]: 3%
pest or weed control at 17.5 g/ha [5]: 30%
pest or weed control at 35 g/ha [5]: 25%
pest or weed control at 70 g/ha [5]: 25%
pest or weed control at 140 g/ha [5]: 60%
pest or weed control at 17.5 g/ha [6]: 0%
pest or weed control at 35 g/ha [6]: 2%
pest or weed control at 70 g/ha [6]: 10%
pest or weed control at 140 g/ha [6]: 23%
pest or weed control at 17.5 g/ha [7]: 3%
pest or weed control at 35 g/ha [7]: 12%
pest or weed control at 70 g/ha [7]: 30%
pest or weed control at 140 g/ha [7]: 53%
pest or weed control at 17.5 g/ha [8]: 80%
pest or weed control at 35 g/ha [8]: 82%
pest or weed control at 70 g/ha [8]: 92%
pest or weed control at 140 g/ha [8]: 97%
pest or weed control at 17.5 g/ha [9]: 0%
pest or weed control at 35 g/ha [9]: 0%
pest or weed control at 70 g/ha [9]: 0%
pest or weed control at 140 g/ha [9]: 3%
pest or weed control at 17.5 g/ha [10]: 2%
pest or weed control at 35 g/ha [10]: 0%
pest or weed control at 70 g/ha [10]: 2%
pest or weed control at 140 g/ha [10]: 7%
pest or weed control at 17.5 g/ha [11]: 75%
pest or weed control at 35 g/ha [11]: 77%
pest or weed control at 70 g/ha [11]: 80%
pest or weed control at 140 g/ha [11]: 83%

Nc1c(F)c(-c2ccc(Cl)c3c2OCO3)nc(C(=O)OCc2ccccc2)c1Cl [Compound 1B]
pest or weed control at 17.5 g/ha [1]: 0%
pest or weed control at 35 g/ha [1]: 0%
pest or weed control at 70 g/ha [1]: 0%
pest or weed control at 140 g/ha [1]: 10%
pest or weed control at 17.5 g/ha [2]: 75%
pest or weed control at 35 g/ha [2]: 80%
pest or weed control at 70 g/ha [2]: 85%
pest or weed control at 140 g/ha [2]: 90%
pest or weed control at 17.5 g/ha [3]: 0%
pest or weed control at 35 g/ha [3]: 0%
pest or weed control at 70 g/ha [3]: 20%
pest or weed control at 140 g/ha [3]: 50%
pest or weed control at 17.5 g/ha [4]: 0%
pest or weed control at 35 g/ha [4]: 0%
pest or weed control at 70 g/ha [4]: 0%
pest or weed control at 140 g/ha [4]: 0%
pest or weed control at 17.5 g/ha [5]: 75%
pest or weed control at 35 g/ha [5]: 85%
pest or weed control at 70 g/ha [5]: 85%
pest or weed control at 140 g/ha [5]: 90%
pest or weed control at 17.5 g/ha [6]: 25%
pest or weed control at 35 g/ha [6]: 50%
pest or weed control at 70 g/ha [6]: 60%
pest or weed control at 140 g/ha [6]: 85%
pest or weed control at 17.5 g/ha [7]: 40%
pest or weed control at 35 g/ha [7]: 75%
pest or weed control at 70 g/ha [7]: 60%
pest or weed control at 140 g/ha [7]: 75%
pest or weed control at 17.5 g/ha [8]: 95%
pest or weed control at 35 g/ha [8]: 100%
pest or weed control at 70 g/ha [8]: 100%
pest or weed control at 140 g/ha [8]: 100%
pest or weed control at 17.5 g/ha [9]: 0%
pest or weed control at 35 g/ha [9]: 0%
pest or weed control at 70 g/ha [9]: 20%
pest or weed control at 140 g/ha [9]: 50%
pest or weed control at 17.5 g/ha [10]: 10%
pest or weed control at 35 g/ha [10]: 10%
pest or weed control at 70 g/ha [10]: 15%
pest or weed control at 140 g/ha [10]: 10%
pest or weed control at 17.5 g/ha [11]: 90%
pest or weed control at 35 g/ha [11]: 95%
pest or weed control at 70 g/ha [11]: 100%
pest or weed control at 140 g/ha [11]: 100%
